Reference: patent publication US8134015B2, “Compound inhibiting in vivo phosphorous transport and medicine containing the same” (Kyowa Hakko Kirin Co., Ltd., priority 2003, dated 2012)

The compounds below were run against T1, rat NaPi-2b (Rattus norvegicus, UniProt Q9JJ09) (assay: Sodium-dependent phosphate uptake of Xenopus oocytes which expressed NaPi-2b (32P)). Settings: Xenopus oocytes expressing rat NaPi-2b, 32P radioactive phosphorus; read-out: IC50 (phosphate uptake inhibitory activity).
T1 construct: expressed in transfected cells; host or cells: Xenopus oocytes injected with cRNA
T1 sequence (Q9JJ09 1-695): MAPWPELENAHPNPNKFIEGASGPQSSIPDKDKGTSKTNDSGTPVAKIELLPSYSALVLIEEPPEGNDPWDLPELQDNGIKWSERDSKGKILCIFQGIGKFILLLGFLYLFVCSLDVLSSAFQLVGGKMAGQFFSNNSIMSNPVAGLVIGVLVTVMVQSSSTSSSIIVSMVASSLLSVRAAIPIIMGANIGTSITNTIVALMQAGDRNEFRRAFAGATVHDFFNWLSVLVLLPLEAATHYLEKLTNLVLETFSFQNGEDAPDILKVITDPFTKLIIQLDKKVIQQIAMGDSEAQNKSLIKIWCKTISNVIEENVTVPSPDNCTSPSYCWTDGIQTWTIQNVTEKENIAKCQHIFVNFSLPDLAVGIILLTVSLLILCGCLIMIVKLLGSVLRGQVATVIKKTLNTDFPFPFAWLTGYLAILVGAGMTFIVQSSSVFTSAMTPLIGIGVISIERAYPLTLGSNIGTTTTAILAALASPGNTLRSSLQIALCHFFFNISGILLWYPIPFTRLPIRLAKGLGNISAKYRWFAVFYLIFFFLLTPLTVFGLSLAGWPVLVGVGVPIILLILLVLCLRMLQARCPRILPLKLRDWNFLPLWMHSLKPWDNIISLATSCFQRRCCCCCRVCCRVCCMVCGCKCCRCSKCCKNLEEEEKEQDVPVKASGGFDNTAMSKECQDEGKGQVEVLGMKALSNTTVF
Type: cell-based
Experimental: Pharmacological Test Example 1
Experiment of Sodium-Dependent Phosphate Uptake of Xenopus oocytes which Expressed NaPi-2b
Degenerate primers were prepared from sequences of mouse NaPi-2b disclosed in Hilfiker H. et al., Pro Natl Acad Sci USA, 95 (24): 14564-14569, […] and sequences of human and rat NaPi-2a disclosed in Magagnin S. et al., Proc Natl Aca Sci USA, 90 (13): 5979-5983, 1993. RNA was extracted from the rat small intestine using ISOGEN; manufactured by NIPPON GENE CO., LTD (Japan). 400 bp gene fragments were obtained by PCR using, as a template, a cDNA library prepared with a cDNA synthesis kit (manufactured by STRATAGENE (US)). Thereafter, the above rat small intestine cDNA library was screened using the gene fragment as a probe, and the whole gene sequence of rat NaPi-2b was cloned. cRNA was synthesized from the cloned rat NaPi-2b cDNA with a cRNA synthesis kit (manufactured by Ambion (US)). The synthesized cRNA was injected into Xenopus oocytes (obtained from COPACETIC (Japan)) with a liquid microinjector (manufactured by Drummond (US)) and was cultured for 2 days to express rat NaPi-2b. Thereafter, for a group of derivatives, phosphate uptake inhibitory activity were measured using the Xenopus oocytes with ^32P radioactive phosphorus (manufactured by Daiichi Kagaku Inc. (Japan)). […] The inhibitory activity for 300 μM and 100 μM was determined from the same inhibition curve and expressed in percentage inhibition (%) in Table 5.

| IC50 [µM] | SMILES |
| --- | --- |
| 1.29 | COc1ccc(C(=O)Nc2ccc(Cl)cc2C(=O)N/N=C/c2cccc(F)c2)cc1OC [Compound 65, N-[4-Chloro-2-(3-fluoro-benzylidene-hydrazinocarbonyl)-phenyl]-3,4-dimethoxy-benzamide] |
| 0.89 | COc1ccc(C(=O)Nc2ccc(Cl)cc2C(=O)N/N=C/c2ccc(F)cc2)cc1OC [Compound 66, N-[4-Chloro-2-(4-fluoro-benzylidene-hydrazinocarbonyl)-phenyl]-3,4-dimethoxy-benzamide] |
| 0.65 | COc1ccc(C(=O)Nc2ccc(Cl)cc2C(=O)N/N=C/c2cccc(C)c2)cc1OC [Compound 67, N-[4-Chloro-2-(3-methyl-benzylidene-hydrazinocarbonyl)-phenyl]-3,4-dimethoxy-benzamide] |
| 3.93 | COc1ccc(C(=O)Nc2ccc(Cl)cc2C(=O)N/N=C/c2cccc(O)c2)cc1OC [Compound 69, N-[4-Chloro-2-(3-hydroxy-benzylidene-hydrazinocarbonyl)-phenyl]-3,4-dimethoxy-benzamide] |
| 9.51 | COc1ccc(C(=O)Nc2ccc(Cl)cc2C(=O)N/N=C/c2ccc(O)cc2)cc1OC [Compound 70, N-[4-Chloro-2-(4-hydroxy-benzylidene-hydrazinocarbonyl)-phenyl]-3,4-dimethoxy-benzamide] |
| 12.3 | COc1ccc(C(=O)Nc2cc(Cl)ccc2C(=O)N/N=C/c2cccc(F)c2)cc1OC [Compound 71, N-[5-Chloro-2-(3-fluoro-benzylidene-hydrazinocarbonyl)-phenyl]-3,4-dimethoxy-benzamide] |
| 10.4 | COc1ccc(C(=O)Nc2cc(Cl)ccc2C(=O)N/N=C/c2ccc(F)cc2)cc1OC [Compound 72, N-[5-Chloro-2-(4-fluoro-benzylidene-hydrazinocarbonyl)-phenyl]-3,4-dimethoxy-benzamide] |
| 1.75 | COc1ccc(C(=O)Nc2cc(Cl)ccc2C(=O)N/N=C/c2cccc(C)c2)cc1OC [Compound 73, N-[5-Chloro-2-(3-methyl-benzylidene-hydrazinocarbonyl)-phenyl]-3,4-dimethoxy-benzamide] |
| 2.15 | COc1ccc(C(=O)Nc2cc(Cl)ccc2C(=O)N/N=C/c2ccc(C)cc2)cc1OC [Compound 74, N-[5-Chloro-2-(4-methyl-benzylidene-hydrazinocarbonyl)-phenyl]-3,4-dimethoxy-benzamide] |
| 12.8 | COc1ccc(C(=O)Nc2cc(Cl)ccc2C(=O)N/N=C/c2cccc(O)c2)cc1OC [Compound 75, N-[5-Chloro-2-(3-hydroxy-benzylidene-hydrazinocarbonyl)-phenyl]-3,4-dimethoxy-benzamide] |
| 13.2 | O=C(Nc1ccccc1C(=O)N/N=C/c1cccc(F)c1)c1ccc(F)cc1 [Compound 76, 4-Fluoro-N-[2-(3-fluoro-benzylidene-hydrazinocarbonyl)-phenyl]-benzamide] |
| 3.01 | O=C(Nc1ccccc1C(=O)N/N=C/c1ccc(F)cc1)c1ccc(F)cc1 [Compound 77, 4-Fluoro-N-[2-(4-fluoro-benzylidene-hydrazinocarbonyl)-phenyl]-benzamide] |
| 7.17 | Cc1cccc(/C=N/NC(=O)c2ccccc2NC(=O)c2ccc(F)cc2)c1 [Compound 78, 4-Fluoro-N-[2-(3-methyl-benzylidene-hydrazinocarbonyl)-phenyl]-benzamide] |
| 2.87 | Cc1ccc(/C=N/NC(=O)c2ccccc2NC(=O)c2ccc(F)cc2)cc1 [Compound 79, 4-Fluoro-N-[2-(4-methyl-benzylidene-hydrazinocarbonyl)-phenyl]-benzamide] |
| 10.9 | O=C(Nc1ccccc1C(=O)N/N=C/c1cccc(O)c1)c1ccc(F)cc1 [Compound 80, 4-Fluoro-N-[2-(3-hydroxy-benzylidene-hydrazinocarbonyl)-phenyl]-benzamide] |
| 5.65 | O=C(Nc1ccccc1C(=O)N/N=C/c1cccc(F)c1)c1cccc(F)c1 [Compound 81, 3-Fluoro-N-[2-(3-fluoro-benzylidene-hydrazinocarbonyl)-phenyl]-benzamide] |
| 6.03 | O=C(Nc1ccccc1C(=O)N/N=C/c1ccc(F)cc1)c1cccc(F)c1 [Compound 82, 3-Fluoro-N-[2-(4-fluoro-benzylidene-hydrazinocarbonyl)-phenyl]-benzamide] |
| 2.98 | Cc1cccc(/C=N/NC(=O)c2ccccc2NC(=O)c2cccc(F)c2)c1 [Compound 83, 3-Fluoro-N-[2-(3-methyl-benzylidene-hydrazinocarbonyl)-phenyl]-benzamide] |
| 8.42 | Cc1ccc(/C=N/NC(=O)c2ccccc2NC(=O)c2cccc(F)c2)cc1 [Compound 84, 3-Fluoro-N-[2-(4-methyl-benzylidene-hydrazinocarbonyl)-phenyl]-benzamide] |
| 2 | O=C(Nc1ccccc1C(=O)N/N=C/c1cccc(O)c1)c1cccc(F)c1 [Compound 85, 3-Fluoro-N-[2-(3-hydroxy-benzylidene-hydrazinocarbonyl)-phenyl]-benzamide] |
| 11.4 | O=C(Nc1ccccc1C(=O)N/N=C/c1ccc(O)cc1)c1cccc(F)c1 [Compound 86, 3-Fluoro-N-[2-(4-hydroxy-benzylidene-hydrazinocarbonyl)-phenyl]-benzamide] |
| 0.29 | COc1ccc(C(=O)Nc2ccc(Br)cc2C(=O)N/N=C/c2ccc(Cl)c(C(F)(F)F)c2)cc1OC [Compound 87, N-[4-Bromo-2-(4-chloro-3-trifluoromethyl-benzylidene-hydrazinocarbonyl)-phenyl]-3,4-dimethoxy-benzamide] |
| 1.11 | COc1cc(OC)cc(C(=O)Nc2ccccc2C(=O)N/N=C/c2ccc(Cl)c(C(F)(F)F)c2)c1 [Compound 89, N-[2-(4-Chloro-3-trifluoromethyl-benzylidene-hydrazinocarbonyl)-phenyl]-3,5-dimethoxy-benzamide] |
| 3.42 | COc1ccc(C(=O)Nc2ccccc2C(=O)N/N=C/c2ccc(Cl)c(C(F)(F)F)c2)cc1 [Compound 90, N-[2-(4-Chloro-3-trifluoromethyl-benzylidene-hydrazinocarbonyl)-phenyl]-4-methoxy-benzamide] |
| 11 | COc1cc(OC)cc(C(=O)Nc2ccccc2C(=O)N/N=C/c2ccc(C)c(C)c2)c1 [Compound 93, N-[2-(3,4-Dimethyl-benzylidene-hydrazinocarbonyl)-phenyl]-3,5-dimethoxy-benzamide] |
| 5.63 | COc1ccc(C(=O)Nc2ccccc2C(=O)N/N=C/c2ccc(C)c(C)c2)cc1 [Compound 94, N-[2-(3,4-Dimethyl-benzylidene-hydrazinocarbonyl)-phenyl]-4-methoxy-benzamide] |
| 1.27 | Cc1ccc(/C=N/NC(=O)c2ccccc2NC(=O)c2cccc(F)c2)cc1C [Compound 95, N-[2-(3,4-Dimethyl-benzylidene-hydrazinocarbonyl)-phenyl]-3-fluoro-benzamide] |
| 5.94 | Cc1ccc(/C=N/NC(=O)c2ccccc2NC(=O)c2ccc(F)cc2)cc1C [Compound 96, N-[2-(3,4-Dimethyl-benzylidene-hydrazinocarbonyl)-phenyl]-4-fluoro-benzamide] |
| 0.51 | COc1ccc(/C=N/NC(=O)c2cc(Br)ccc2NC(=O)c2ccc(OC)c(OC)c2)cc1Br [Compound 97, N-[4-Bromo-2-(3-bromo-4-methoxy-benzylidene-hydrazinocarbonyl)-phenyl]-3,4-dimethoxy-benzamide] |
